These are literature values, as cited in paper PMC8397297 (ACS Chemical Neuroscience, 2021).

Read-outs that look alike come from different tables or passages of the source.

One series has as its target T1, mGAT2 (Mus musculus, UniProt P31651).
T1 construct: expressed in transfected cells; host or cells: HEK-293
T1 sequence (P31651 1-614): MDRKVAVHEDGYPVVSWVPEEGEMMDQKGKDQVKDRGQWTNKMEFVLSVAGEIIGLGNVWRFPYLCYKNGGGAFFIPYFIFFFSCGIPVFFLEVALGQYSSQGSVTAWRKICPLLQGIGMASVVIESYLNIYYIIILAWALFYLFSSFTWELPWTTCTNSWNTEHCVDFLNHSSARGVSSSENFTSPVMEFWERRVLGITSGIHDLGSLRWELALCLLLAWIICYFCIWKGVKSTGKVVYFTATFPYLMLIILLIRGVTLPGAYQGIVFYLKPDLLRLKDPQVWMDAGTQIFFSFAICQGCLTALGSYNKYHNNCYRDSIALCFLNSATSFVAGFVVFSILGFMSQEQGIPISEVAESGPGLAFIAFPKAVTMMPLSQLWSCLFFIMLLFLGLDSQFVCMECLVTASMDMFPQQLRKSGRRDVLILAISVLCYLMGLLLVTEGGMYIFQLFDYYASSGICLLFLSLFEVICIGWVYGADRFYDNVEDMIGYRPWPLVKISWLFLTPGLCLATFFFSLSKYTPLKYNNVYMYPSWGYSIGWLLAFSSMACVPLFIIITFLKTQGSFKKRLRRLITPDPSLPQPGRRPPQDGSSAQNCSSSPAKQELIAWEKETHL
Conditions: cited from earlier work.

The next series has as its target T2, mGAT4 (Mus musculus, UniProt P31650).
T2 construct: expressed in transfected cells; host or cells: HEK-293
T2 sequence (P31650 1-627): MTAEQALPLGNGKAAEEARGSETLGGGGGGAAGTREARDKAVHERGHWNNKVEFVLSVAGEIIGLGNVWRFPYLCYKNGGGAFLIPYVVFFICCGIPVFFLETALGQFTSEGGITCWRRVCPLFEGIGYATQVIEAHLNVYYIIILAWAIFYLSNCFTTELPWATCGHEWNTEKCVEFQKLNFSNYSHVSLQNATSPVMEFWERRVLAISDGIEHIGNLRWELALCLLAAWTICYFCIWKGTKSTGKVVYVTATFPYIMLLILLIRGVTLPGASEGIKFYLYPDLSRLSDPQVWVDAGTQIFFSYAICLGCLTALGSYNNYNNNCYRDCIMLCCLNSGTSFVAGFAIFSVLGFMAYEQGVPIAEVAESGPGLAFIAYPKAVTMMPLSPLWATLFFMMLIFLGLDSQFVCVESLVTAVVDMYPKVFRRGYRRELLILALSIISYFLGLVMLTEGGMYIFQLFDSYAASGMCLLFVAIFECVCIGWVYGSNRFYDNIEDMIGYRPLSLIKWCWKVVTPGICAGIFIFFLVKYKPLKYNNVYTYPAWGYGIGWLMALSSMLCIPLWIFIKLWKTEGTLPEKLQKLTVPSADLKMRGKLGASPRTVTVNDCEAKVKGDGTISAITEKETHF
Conditions: cited from earlier work.

The target of series [1] is T3, mGAT1 (Mus musculus, UniProt P31648).
T3 construct: expressed in transfected cells; host or cells: HEK-293
The following applies: Figure 2; cited from earlier work.

The next series has as its target T4, mGAT3 (Mus musculus, UniProt P31649).
T4 construct: expressed in transfected cells; host or cells: HEK-293
T4 sequence (P31649 1-602): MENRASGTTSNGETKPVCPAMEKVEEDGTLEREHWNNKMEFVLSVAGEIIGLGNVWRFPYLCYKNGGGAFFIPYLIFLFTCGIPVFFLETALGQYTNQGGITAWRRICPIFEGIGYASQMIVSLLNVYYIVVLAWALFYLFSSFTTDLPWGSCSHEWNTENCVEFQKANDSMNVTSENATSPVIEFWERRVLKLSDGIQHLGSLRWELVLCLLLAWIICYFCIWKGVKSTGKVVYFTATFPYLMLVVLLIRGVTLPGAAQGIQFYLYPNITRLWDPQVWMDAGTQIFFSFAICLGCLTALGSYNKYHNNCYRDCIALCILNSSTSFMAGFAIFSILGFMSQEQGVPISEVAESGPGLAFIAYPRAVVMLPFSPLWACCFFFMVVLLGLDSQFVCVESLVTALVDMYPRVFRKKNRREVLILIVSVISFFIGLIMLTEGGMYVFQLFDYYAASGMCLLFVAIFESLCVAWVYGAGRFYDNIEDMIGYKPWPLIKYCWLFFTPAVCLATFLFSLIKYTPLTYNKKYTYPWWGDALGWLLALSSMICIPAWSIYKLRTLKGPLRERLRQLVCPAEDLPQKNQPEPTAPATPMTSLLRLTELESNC
The following applies: cited from earlier work.

Series [2] addresses T3, mGAT1. Conditions: 100 μM inhibitor; cited from earlier work.

On to `O=C(O)[C@@H]1CCCN(CCC#Cc2ccccc2-c2ccc(F)cc2Cl)C1` [Compound 7], for which, on mGAT2 (100μM), the “mGAT2 % (100μM)” value is given as 55%. The “pIC50 mGAT4” value on mGAT4 (Figure 2) is listed as 4.29. In addition, the “pIC50 mGAT1” value at mGAT1 [1] is given as 7.68. In addition, at mGAT3 (Figure 2), the “pIC50 mGAT3” value is reported as 4.56.

`O=C1Nc2ccc(-c3cccs3)cc2C1=O` [Compound 12]: the “pIC50 mGAT2” value at mGAT2 (Figure 2) is listed as 3.21. For the same compound, the “pIC50 mGAT1” value on mGAT1 [1] is less than 3.

Regarding `Cc1ccsc1C(=CCCN(C)C(CCO)C(=O)NCc1ccccc1Cl)c1sccc1C` (centres unmarked) [Compound 13], at mGAT2 ([3H]GABA uptake), the “pIC50 mGAT2” value is recorded as 4.98 ± 0.05. In addition, the “remaining NO711 binding mGAT1” value on mGAT1 [2] was 100 μM: 77%. Besides, the “pIC50 mGAT3” value at mGAT3 ([3H]GABA uptake) was 5.31 ± 0.04.

Consider `Cc1ccsc1C(=CCCN1CCC[C@@H](C(=O)O)C1)c1sccc1C` [tiagabine, (R)-1-[4,4-bis(3-methyl-2-thienyl)-3-butenyl]-3-piperidinecarboxylic acid], for which the “remaining [3H]GABA uptake mGAT2” value at mGAT2 (100 μM inhibitor) is on record as 100 μM: 52%. The “remaining [3H]GABA uptake mGAT4” value on mGAT4 (100 μM inhibitor) is recorded as 100 μM: 73%. Besides, on mGAT4 (100μM), the “mGAT4 % (100μM)” value is reported as 73%. In addition, on mGAT3 (100 μM inhibitor), the “remaining [3H]GABA uptake mGAT3” value is on record as 100 μM: 64%. For the same compound, the “mGAT3 % (100μM)” value at mGAT3 (100μM) is 64%.
